Results: patent US4315032A, “Process for preparation of adjacently disubstituted ketones” (Teitin Limited, priority 1979, dated 1982)
Where two headings read alike, the source gives them in different places.

Assays:
[1] = system: ulcer formation induced by indomethacin; assay: inhibiting action on the formation of ulcer in rats induced by indomethacin; format: in vivo, Male rats (Sprague Dawley species); settings: indomethacin 20 mg/kg peroral, compound 0.5 × 2 mg/kg, S.C.; for Inhibiting rate (%): inhibition of ulcer formation
Protocol: By the method of Y. H. Lee et al. [Arch. Int. Pharmacodyn. Ther., 192, 370 (1971)], the inhibiting action of the compound No. 122 in Example 11 and compound No. 158 in Example 21 on the formation of ulcer in rats induced by indomethacin, a typical non-steroid anti-inflammatory agent, was evaluated.
Male rats (Sprague Dawley species; body weight 240-270 g) were used in the experiment. These rats had been caused to fast for 24 hours in separate cages before the initiation of the experiment. Indomethacin was orally administered to these rats, and 6 hours later, they were killed. Formation of ulcer in the fundus part was examined by measuring the area of the ulcer-forming part under a microscope. The compounds Nos. 122 and 158 were each subcutaneously administered at the end of 30 minutes and 2 hours, respectively, after the administration of indomethacin. The ulcer formation inhibiting rate of these compounds against a predetermined dose of indomethacin was determined.
The indomethacin was administered as a 0.5 ml aqueous suspension (containing two drops of a Tween-type nonionic surfactant per 14 ml of water). The compounds Nos. 122 and 158 were given in the form of a solution in a phosphate buffer (pH 7.4).

[2] = system: platelet aggregation (rabbit PRP); assay: Activity of Inhibiting Platelet Aggregation In Vitro (rabbit PRP, ADP); format: cell-based; settings: ADP-disodium salt 5 μM final, 37° C., 2 min pre-incubation, minimum concentration whose inhibiting rate exceeded 50%
Protocol: The platelet aggregation inhibiting activities of test compounds including 7-hydroxy PGE1 of this invention were tested using rabbit PRP. The results are shown in terms of their concentrations at 50% inhibition (IC50) of platelet aggregation. As an aggregating agent, ADP-disodiumsalt having a final concentration of 5 μM was used.
(1) Preparation of platelet-enriched plasma (PRP)
Citrated blood (consisting of 1 part by volume of […] sodium citrate and 9 parts by volume of the blood) was prepared by taking blood from the ear veins of male rabbits having a body weight of 2.0 to 3.0 kg (white ordinary species). The citrated blood was centrifuged at 100 G for 10 minutes at room temperature, and the supernatant (PRP) was separated.
The PRP obtained was stored at room temperature, and used as early as possible. PRP stored for more than 4 hours after preparation was not used.
(2) Preparation of test drugs
Each test drug was dissolved in ethyl alcohol to a concentration of 10 mg/ml or 1 mg/ml, and diluted with physiological saline to adjust its concentration.
(3) Preparation of the aggregating agent
ADP disodium salt (a product of Kyowa Hakko Kabushiki Kaisha) was dissolved in 0.1 M tris-HCl buffer (pH 7.8) to prepare a solution having a concentration of 50 μM (final concentration 5 μM).
(1) Degree of platelet aggregation in a blank
Physiological saline (25 μl) and 25 μl of the aggregating agent solution were added to 200 μl of PRP which had been warmed in a cuvette at 37° C. of an aggregometer to aggregate platelet. The aggregation curve was recorded for 3 minutes by an aggregometer (a product of Rika Denki Kabushiki Kaisha). The maximum degree of aggregation in this platelet aggregation was defined as the maximum degree of aggregation of the blank.
(2) Test for inhibition of platelet aggregation
The solution of test drug (25 μl) was added to 200 of PRP, and the mixture was pre-incubated for 2 minutes in a cuvette of an aggregometer. Then, 25 μl of the ADP disodium solution (50 μM) was added, and the aggregation curve was recorded for 3 minutes. The maximum degree of platelet aggregation within this period was measured, and the inhibiting rate was calculated from the following equation. The mimimum concentration (expressed as final concentration) of the drug whose inhibiting rate exceeded 50% was shown as an IC50 value. [formula]
For details of the in vitro platelet aggregation inhibiting test, see H. M. Davis, J. Phyllis, K. Paul and W. Terry: Thromb. Res. 11, 217-226 (1977) and R. E. Anderson and J. G. Foulks: Thromb. Haemos. 36, 343-359 (1976).

CCCCCC(O)/C=C/C1C(O)CC(=O)C1C(O)CCCCCC(=O)OC (stereo not drawn) [No. 122, 2-(1-hydroxy-7-keto-8-oxanonyl)-3-(3-hydroxy-1-trans-octenyl)-4-hydroxycyclopentanone]
Ulcer formation (ulcer coefficient) Average value ± S.E.M. [1]: 12.1 ± 4.1 | Inhibiting rate (%) [1]: 40.4%

CCCCCC(O)/C=C/C1C(O)CC(=O)C1C(O)CCCCCC(=O)OC (stereo not drawn) [No. 144, dl 2-(1-hydroxy-7-keto-8-oxanonyl)-3-(3-hydroxy-1-trans-octenyl)-4-hydroxycyclopentanone]
IC50 [2]: > 10 µg/mL

CCCCCC(O)/C=C/C1C(O)CC(=O)C1C(O)CCCCCC(=O)OC (stereo not drawn) [No. 146, dl 2-(1-hydroxy-7-keto-8-oxanonyl)-3-(3-hydroxy-1-trans-octenyl)-4-hydroxycyclopentanone]
IC50 [2]: 24.5 µg/mL

CCCCCC(O)/C=C/C1C(O)CC(=O)C1C(O)CCCCCC(=O)OC (stereo not drawn) [No. 148, dl 2-(1-hydroxy-7-keto-8-oxanonyl)-3-(3-hydroxy-1-trans-octenyl)-4-hydroxycyclopentanone]
IC50 [2]: > 10 µg/mL

CCCCCC(O)/C=C/C1C(O)CC(=O)C1C(O)CCCCCC(=O)OC (stereo not drawn) [No. 150, dl 2-(1-hydroxy-7-keto-8-oxanonyl)-3-(3-hydroxy-1-trans-octenyl)-4-hydroxycyclopentanone]
IC50 [2]: > 10 µg/mL

CCCCC[C@H](O)/C=C/C1C(C(O)CCCCCC(=O)OC)C(=O)C[C@H]1O (stereo partly drawn) [No. 156, 2-(1-hydroxy-7-keto-8-oxanonyl)-3-[3(S)-hydroxy-1-trans-octenyl]-4(R)-hydroxycyclopentanone]
IC50 ([2]; Oryctolagus cuniculus, Platelet, read-out: IC50): 26.3 µg/mL

CCCCC[C@H](O)/C=C/C1C(C(O)CCCCCC(=O)OC)C(=O)C[C@H]1O (stereo partly drawn) [No. 158, 2-(1-hydroxy-7-keto-8-oxanonyl)-3-[3(S)-hydroxy-1-trans-octenyl]-4(R)-hydroxycyclopentanone]
IC50 [2]: 41.5 µg/mL | Ulcer formation (ulcer coefficient) Average value ± S.E.M. [1]: 15.8 ± 5.1 | Inhibiting rate (%) [1]: 22.2%
